Here are results for two compounds from patent US9907765B2, “Treatment of connective tissue diseases of the skin” (Cipher Pharmaceuticals, Inc., priority 2005, dated 2018).

Data set [1] deals with patients suffering from discoid Lupus Erythematosus. The data set can be described thus: Topical treatment of cutaneous manifestations in patients with discoid Lupus Erythematosus. The following applies: patient with Discoid Lupus Erythematosus, after 3 weeks treatment. The class given is in vivo, human. An excerpt: (§1) Examples 2 to 5 concern the treatment of cutaneous manifestation in patients suffering from discoid Lupus Erythematosus or subacute Lupus Erythematosus with the topical composition of Example 1 under the control of a medical doctor of Bispebjerg Hospital, Denmark. The composition was applied to affected areas once or twice per day.
A person had been suffering from discoid Lupus Erythematosus for 18 years. Their arms were somewhat affected and the fingers were severely affected with acrocyanosis. During the years, the person had regularly been treated with strong topical steroids, but with limited effect.
During an aggravation of the disease, which especially affected the fingers, the person initiated a treatment with the emulsion according to example 1 on the fingers.
A person had been suffering from discoid Lupus Erythematosus for 6 years. The symptoms started on the chin, but had spread to most of the face.
During an aggravation of the symptoms, the subject initiated a twice daily treatment with the emulsion according to example 1.
A person had been suffering from discoid Lupus Erythematosus for 32 years. The disease was very severe with a strong affection of the arms and the back and with elements spread to other parts of the body. The person had been treated with ercoquin and strong topical corticosteroids, but with limited effect. […]

Data set [2] has as its system patients suffering from subacute Lupus Erythematosus. The data set can be described thus: Topical treatment of cutaneous manifestations in patients with subacute Lupus Erythematosus. The class given is in vivo, human. The following applies: patient with Sub-acute Cutaneous Lupus Erythematosus, after 8 weeks of treatment.
Source text: as §1
A person had been suffering from subacute Lupus Erythematosus for 16 years. The subject was affected on large areas of the body with elements on the back, the breast and the face.
The person has previously been treated with oral prednisolone, chlorochin, thalidomide and strong topical steroids, but all with limited or no effect.
During an aggravation of the symptoms, the person initiated a twice daily treatment with the emulsion according to example 1.

Data set [3] concerns Albino guinea pigs of Dunkin-Hartley strain. Nature of the data set: Skin sensitization test according to the Magnusson and Kligman method (O.E.C.D. Guideline No 406). In kind it is in vivo, guinea pig. On the procedure: Assessment of sensitising properties of R-salbutamol. Test for skin sensitization is carried out according to the Magnusson and Kligman method (J. Invest. Dermatol. 1969. 52, 268-276) and in accordance with O.E.C.D. Guideline No 406 of Jul. 17, 1992, and the test method B.6 of the 96/54 E.E.C Directive. The test item (R-salbutamol as the sulphate salt) was diluted with distilled water to prepare a concentration of 0.5% (w/v). Albino guinea pigs of Dunkin-Hartley strain were exposed to the test item after an acclimatisation period of at least five days. The Maximum Non Necrotizing Concentration (M.N.N.C.) was determined by injecting by intradermal route the following concentrations of the test item 0.25%, 0.125%, 0.0625%, 0.0312% and 0.0156% diluted in physiological saline solution. Pre-Maximum Non Irritant Concentration (pre-M.N.I.C.) was determined by application of the test item under an occlusive dressing during 24 hours, at the following concentrations: 0.5%, 0.25%, 0.125% and 0.0625% diluted in physiological saline solution. Maximum Non Irritant Concentration (M.N.I.C.) was determined by initially establishing an induction phase by intradermal injection with a physiological saline solution and by topical application of distilled water followed by a 18-day rest phase. […]

Consider “1-[[(1,1-Dimethylethyl)amino]methyl]-4-hydroxy-1,3-benzenedimethanol [Salbutamol]”, for which the “improvement of inflamed lesions” value in data set [1] is “significant improvement”. Also, the “remission of the cutaneous symptoms” value in data set [2] is “complete remission”.
For the compound `CC(C)(C)NC[C@H](O)c1ccc(O)c(CO)c1` [R-salbutamol], in data set [3] (challenge phase, after removal of 24 h occlusive dressing, induction with test item at 0.5%), the “macroscopic cutaneous reactions attributable to allergy” value is given as “No macroscopic cutaneous reactions attributable to allergy”. The “skin sensitization following topical application” value in data set [3] (topical application to skin) was “does not confer skin sensitization”.
